The test system of one assay is liver cancer PDX model. Description: In vivo pharmacodynamics, liver cancer PDX model. The conditions noted are these: 200 mg/kg PO QD 21 days. More on the design: species or system female NU/NU nude mouse. As for the experimental part: Tumor tissues were harvested from tumor-bearing mice of liver cancer PDX model, cut into pieces with diameter of […] and seeded subcutaneously to back of female NU/NU nude mouse. When the tumors' average volume reached 100-300 mm^3, the animals were grouped and administered with a drug. Compound 1 was orally administrated once a day at an amount of 200 mg/kg, for 21 days. The volume of the drug for administration is 0.1 mL/10 g according to animal's body weight.
Tumor volume was measured with vernier calipers twice a week by measuring the major diameter and the minor diameter. The tumor volume is calculated by the following formula: volume=0.5×(major diameter)×(minor diameter)^2. The relative tumor volume (RTV) and the proliferation ratio (T/C) were calculated according to the result of measurement. RTV=Vt/V0, wherein Vt is the average tumor volume on the t day after grouping, and V0 is the average tumor volume on the day of grouping. T/C (%)=RTV of treatment group/RTV of solvent control group×100%.
One-way ANOVA was used for analysing the group statistical analysis of tumor volumes. p<0.05 was regarded as having significant difference.

Another assay addresses CDK4/D3 (Homo sapiens, UniProt P11802). Description: In vitro enzyme-inhibiting activity, Caliper Mobility Shift method. The class given is biochemical. As to conditions: read-out: CDK enzyme-inhibiting activity IC50 CDK4/D3.
Assay [1] has as its system MCF-7 human breast cancer cell. As to the kind of experiment: BrdU cell proliferation assay (Cell Signaling kit). Type of assay: cell-based. As to conditions: MCF7, 72 h, read-out: In vitro cell-inhibiting activity IC50 MCF-7. As for the experimental part:
Experimental method: cell proliferation assay was carried out by BrdU method (BrdU cell proliferation assay kit, Cell Signaling Technology Company).
Preparation of gradient dilution solutions of test compound: the stock solution containing 10 mM test compound was subjected to 4-fold stepwise dilution with DMSO to prepare solutions containing 2.5 mM, 625 μM, 156 μM, 39 μM, 9.8 μM, and 2.5 μM test compound, respectively. 2 μL DMSO-diluted compound was added to 198 μL culture medium containing 10% FBS to prepare […] test compound, wherein the maximum concentration of the test compound was 100 μM, the concentration of DMSO was 1%, and there were 7 concentration gradients.
MCF-7 medium: DMEM+10% FBS+0.01 mg/mL insulin
(1) Cells grown to 80% confluence (in exponential growth phase) were digested with pancreatin, and centrifuged to collect the cells. MDA-MB-435S and U87MG cells were re-suspended in FBS-free culture medium, counted, and seeded to a 96-well plate; MDA-MB-435S cells were seeded at 3000 cells/well/81 μL; U87MG cells were seeded at 4000 cells/well/81 MCF-7 cells were resuspended in culture medium containing 1% FBS, and counted and seeded to a 96-well plate, at 4000 cell/well/82 μL. The plates were placed in a cell incubator at 37° C. […]
(9) To each well, stop solution (100 μL) was added, and OD value at 450 nm was measured by ELISA instrument […]

Chain of CDK4/D3 (P11802 whole entry): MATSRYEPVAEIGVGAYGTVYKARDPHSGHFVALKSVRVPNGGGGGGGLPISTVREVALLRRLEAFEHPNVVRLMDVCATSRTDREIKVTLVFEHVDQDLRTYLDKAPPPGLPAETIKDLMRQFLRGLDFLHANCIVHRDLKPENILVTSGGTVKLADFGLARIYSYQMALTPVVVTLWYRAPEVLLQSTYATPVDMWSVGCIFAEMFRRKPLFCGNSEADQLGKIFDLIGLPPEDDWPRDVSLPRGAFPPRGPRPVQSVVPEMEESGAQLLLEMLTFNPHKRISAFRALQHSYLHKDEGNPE
Chain of CDK4/D3 (P30281 whole entry partner): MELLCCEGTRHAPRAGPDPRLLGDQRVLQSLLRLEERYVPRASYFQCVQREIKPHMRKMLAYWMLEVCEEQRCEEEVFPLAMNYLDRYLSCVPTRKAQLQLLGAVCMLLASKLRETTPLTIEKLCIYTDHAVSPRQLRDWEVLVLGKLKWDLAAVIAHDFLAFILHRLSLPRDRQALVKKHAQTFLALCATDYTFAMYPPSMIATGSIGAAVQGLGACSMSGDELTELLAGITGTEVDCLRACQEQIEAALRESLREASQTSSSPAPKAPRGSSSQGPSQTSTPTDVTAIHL
Protocol for CDK4/D3: Measurement of activity for inhibiting CDK4/6 kinase by Caliper Mobility Shift method.
1) Preparation of 1-Fold Buffer for CDK4 Kinase 800 μL stock solution containing 1000 mM HEPES (pH 7.5), and 40 μL stock solution containing 10% Triton X-100, were added to 39160 μL ultra pure water, and the resultant mixture was mixed homogeneously.
25 mL stock solution containing 4% Coating Reagent #3 (provided with the 12-sipper chip used in Caliper device), 50 mL stock solution containing 1000 mM HEPES (pH 7.5), 50 mL stock solution containing 0.5 M EDTA, and 0.25 mL stock solution containing 30% Brij-35, were added to 374.75 mL ultra pure water, and the resultant mixture was mixed homogeneously.
7 μL CDK4/D3 enzyme solution, and 9 μL stock solution containing 1M DTT were added to 1784 μL 1-fold CDK4 kinase buffer, and the resultant mixture was mixed homogeneously.
10 μL stock solution containing 100 mM ATP, 45 μL stock solution containing 1M MgCl2, and 45 μL FAM-tagged polypeptide 8, were added to 1700 μL 1-fold CDK4 kinase buffer, and the resultant mixture was mixed homogeneously.
DMSO solution containing 10 mM test compound was diluted with DMSO to a solution containing 50 μM test compound (which was used as a stock solution).
1) 5 μL 5-fold test compound solution and 10 μL 2.5-fold kinase solution were added to the corresponding wells in a 384-well plate, and incubated at room temperature for 10 min.
2) To the corresponding wells, 10 μL 2.5-fold polypeptide solution was added to start the enzymatic reaction, and incubation was performed at 28° C. for 5 h.
To the corresponding wells, 25 μL stop solution was added to stop the reaction.
The data was read by Caliper device, the inhibition rate was calculated by the following formula, and curve fitting was carried out by GraphPad5.0 software to get IC50 value. Inhibition rate=(maximal value−sample value)/(maximal value−minimal value)×100, wherein, maximal value: positive control without addition of test compound; minimal value: negative control without addition of enzyme.

As for `CCN1CCN(Cc2cnc(Nc3cc(-c4cc(F)c5nc(C)n(C(C)C)c5c4)c(F)cn3)nc2)CC1` [Compound 1, 5-((4-ethylpiperazin-1-yl)methyl)-N-(5-fluoro-4-(4-fluoro-1-isopropyl-2-methyl-1H-benzo[d]imidazol-6-yl)pyridin-2-yl)pyrimidin-2-amine], the “T/C (proliferation ratio)” value in the assay on liver cancer PDX model worked out at 31.74%. Moreover, in the assay on liver cancer PDX model (average ± standard error), the “Tumor volume after administration” value was 199.22 ± 33.76 mm^3 and the “Tumor volume before administration” value is 164.8 ± 10.35 mm^3. The IC50 at CDK4/D3 is 2.7 nM.

Regarding `CCN1CCN(Cc2ccc(Nc3ncc(F)c(-c4cc(F)c5nc(C)n(C(C)C)c5c4)n3)nc2)CC1` [LY2835219, reference compound], in assay [1], the IC50 is 176 nM.

Values taken from US9949976B2, “Kinase inhibitor and use thereof” (Sihuan Pharmaceutical Holdings Group Ltd., priority 2013, dated 2018).
